In patent publication US20130131062A1, “PYRIDAZINONES AND FURAN-CONTAINING COMPOUNDS” (priority 2006, published 2013):

Key:
H1650 = test: Non Small Cell Lung Cancer Proliferation Assay (Alamar Blue); type: cell-based, human; details: Homo sapiens, NCI-H1650, dose response 10 μM to 5 nM
Description: (§1) Non Small Cell Lung Cancer cell lines are grown and maintained in Corning 175 cm2 flasks in RPMI 1640 media supplemented with 10% FBS, 1% antibiotic solution, 1% additional glutamine and pyruvate. These cells have a doubling time of 1-2 days. All cell types are adherent and grow in colonies. The cells should be kept at a density between 50,000 cells/mL-500,000 cells/mL to provide for optimum growth and adequate nutrition. The cell line should be maintained at 37° C. in a humidified atmosphere with 5% CO2 in a sterile cell culture incubator.
(§2) To perform the assay, the Non Small Cell Lung Cancer lines are diluted in media and plated into 384 well microplates at a final density of 250 cells in 45 μL. To ensure consistency and minimal pipetting error, the cells are plated using the Multidrop 384 with the following settings: Rocker Switch set at 384, Volume 45 and Column 24.
(§3) Low Controls for this assay are made by treating Non Small Cell Lung Cancer cells with 5 ul of staurosporine at 250 uM in 10% DMSO and 1% SDS. [Final concentration in this assay is 25 uM staurosporine in 1% DMSO and 0.1% SDS.]
(§4) High Controls for this assay are made by treating Non Small Cell Lung Cancer cells with 5 ul of 10% DMSO. [Final concentration in this assay is 1% DMSO].
(§5) The remaining wells of the 384 microplate may be treated with different compounds depending on the study. Important Note: All compounds for testing in this assay should be done at the final concentration of 1% DMSO.
(§6) After addition, the cells are placed in cell culture incubator at 37° C. for 48 hours for complete treatment.
(§7) After drug treatment, cytotoxicity is measured by Alamar Blue reduction. 5 μL of Alamar Blue is added to the 384 microplates using the Flexdrop.
(§8) The cells are incubated for 48 hours at 37° C. to complete the Alamar Blue reduction.
(§9) The final step in the assay is to measure the amount of Alamar Blue reduction. […] The Alamar Blue fluorescence is measured at an excitation of 530 nm and emission of 590 nm.
(§10) For the NSCLC project, the cell based assay was screened against a small molecule library of approximately 200,000 compounds. The compound library is stored in our automated robotic freezer (Biophile) at −20° C. in 100% DMSO. Compound freeze and thaw cycles are kept to a minimum. Compounds for use are diluted into the appropriate concentration and plated into 384 well microplates using our custom built low volume 384-well head tool (TPS 384, Apricot Designs Inc., CA, USA). This assay was performed on a fully automated linear track robotic platform (CRS F3 Robot System, Thermo Electron Corp., Ontario, Canada) utilizing several integrated peripherals for plate handling, liquid dispensing, and readout detection. First, non-small cell lung cancer cell lines are dispensed into 384 well microplates (Corning #3712 Tissue Culture Treated Plate, Corning, N.Y., USA) with 5 μL of test compounds at 100 uM in 10% DMSO for screening studies or 1 mM in 10% DMSO to 50 nM in 10% DMSO for dose response studies. The microplates are then placed at 37° C. for 48 hours to complete treatment of cells with compounds. Next, 5 ul of alamar blue was added using a liquid dispenser (FlexDrop Precision Dispenser, Perkin Elmer, Mass., USA) and incubated for 48 hours at 37° C. The alamar blue prompt fluorescence was measured on Victor V (Victor^3 V, Perkin Elmer, Mass., USA) and output data files were loaded into ORIS (Oncology Research Informatics System, MSKCC, NY, USA), a screening data acquisition and analysis platform.

H1975 = test: as above; type: cell-based, human; details: Homo sapiens, NCI-H1975, dose response 10 μM to 5 nM
Description: as §1, §2, §3, §4, §5, §6, §7, §8, §9, §10

IC50 (H1650): 2.74 µM
IC50 (H1975): 0.47 µM
Compound: Cc1ccccc1-n1ncc(Cl)c(Cl)c1=O [compound 257017]
